The record followed here is PubChem BioAssay AID506 (SGCOxCompounds, 2006).

Serine/threonine-protein kinase Nek2 (Homo sapiens), sequence (P51955 whole entry, looked up): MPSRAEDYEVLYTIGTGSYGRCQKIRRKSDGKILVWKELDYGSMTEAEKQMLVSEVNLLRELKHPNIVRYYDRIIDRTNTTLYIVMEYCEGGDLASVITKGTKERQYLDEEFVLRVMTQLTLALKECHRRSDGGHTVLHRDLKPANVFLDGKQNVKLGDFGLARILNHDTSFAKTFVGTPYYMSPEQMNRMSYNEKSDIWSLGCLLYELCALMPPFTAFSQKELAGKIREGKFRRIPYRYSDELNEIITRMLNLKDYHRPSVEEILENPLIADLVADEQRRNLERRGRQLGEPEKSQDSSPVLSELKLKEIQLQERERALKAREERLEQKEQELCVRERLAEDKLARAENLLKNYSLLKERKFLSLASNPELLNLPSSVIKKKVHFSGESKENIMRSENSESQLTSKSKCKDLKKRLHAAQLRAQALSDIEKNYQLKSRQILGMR

The experiment has as its target Serine/threonine-protein kinase Nek2 (Homo sapiens) (UniProt P51955). As to the kind of experiment: ligand-induced stabilization of human NEK2 kinase – biophysical, DSF, SYPRO orange, recombinant protein (AID 506). As to conditions: recombinant NEK2, DSF thermal shift, at 10 µM, protein 2 µM, hits give high values.
`O=C1NCc2c1c1c3ccccc3[nH]c1c1[nH]c3ccccc3c21`: the Tm shift is 3.7 °C.
For `Nc1cccc(-c2cc3c(Oc4cccc(O)c4)ncnc3[nH]2)c1`, the Tm shift was 3.3 °C.
Turning to `C=CCNC(=O)c1cccc2c1-c1ccccc1C2=O`, the Tm shift is 4.6 °C.
Take `O=C1C(C2=C3C(=Nc4ccccc43)/C(=C\c3ccc(O)cc3)C2=O)=C2C(=Nc3ccccc32)/C1=C\c1ccc(O)cc1`: the Tm shift was 3.2 °C.
With `Nc1nc(Nc2ccc(S(N)(=O)=O)cc2)nn1C(=S)Nc1c(F)cccc1F`, the Tm shift was 3.1 °C.
On to `Nc1cc2ncnc(Nc3cccc(Br)c3)c2cc1N`, for which the Tm shift was 3.3 °C.
Regarding `Cn1cc(/C=C2\C(=O)Nc3ccc(S(N)(=O)=O)cc32)c2ccccc21`, the Tm shift was 6 °C.
Take `COc1cccc(-c2cnn3ccc(Nc4cccc(Cl)c4)nc23)c1`: the Tm shift was 3.2 °C.
Next, `NS(=O)(=O)c1ccc(Nc2nc(OCC3CCCCC3)c3[nH]cnc3n2)cc1`: 5.6 °C; `Clc1cccc(Nc2ccn3ncc(-c4ccc5c(c4)OCO5)c3n2)c1`: 3.3 °C; `CCN(CC)CCNC(=O)c1c(C)[nH]c(/C=C2\C(=O)Nc3ccc(Cl)cc32)c1C`: 5.4 °C.
Regarding `Cc1cc(Nc2nc(-c3ccccc3)nc3ccccc23)n[nH]1`, the Tm shift was 3.7 °C.
`O=c1c(O)c(-c2ccc(O)c(O)c2)oc2cc(O)cc(O)c12`: the Tm shift is 3.4 °C.
For the compound `NC(=O)Nc1sc(-c2ccccc2)cc1C(N)=O`, the Tm shift was 3.1 °C.
Take `OCC(O)CCO/N=C1/C(c2c(O)[nH]c3ccccc23)=Nc2ccccc21` (stereo unspecified): the Tm shift is 3.3 °C.
Take `O=Nc1c(-c2c(O)[nH]c3ccc(S(O)(O)O)cc23)[nH]c2ccccc12`: the Tm shift was 3.2 °C.
